In patent publication US20110224208A1, “NOVEL INHIBITORS OF FLAVIVIRUS REPLICATION” (KATHOLIEKE UNIVERSITEIT LEUVEN, K.U. LEUVEN R&D, priority 2008, published 2011) one finds IC50 and CC50 data, which are given here for 29 compounds.

Values after ≈ are worked out from the molar mass of the structure shown.

Data set [1] concerns HCV replicon I389luc-ubi-neo/NS3-3'/5.1. Nature of the data set: Anti-HCV replicon assay (luciferase activity) in Huh-5-2 cells. Format: cell-based, Hepatitis C virus. Conditions: Hepatitis C virus, Huh-5-2, 72 h, concentration required to inhibit luciferase activity in the replicon system by 50%. As for the experimental part: (§1) Cells were seeded at a density of 7000 cells per well in 96 well View Plate™ (Packard) in medium containing the same components as described above, except for G418. Cells were allowed to adhere and proliferate for 24 hr. At that time, culture medium was removed and serial dilutions of the test compounds were added in culture medium lacking G418. Interferon alfa 2a (500 IU) was included as a positive control. Plates were further incubated at 37° C. and 5% CO2 for 72 hours. Replication of the HCV replicon in Huh-5 cells results in luciferase activity in the cells. Luciferase activity is measured by adding 50 μl of 1×Glo-lysis buffer (Promega) for 15 minutes followed by 50 ul of the Steady-Glo Luciferase assay reagent (Promega). Luciferase activity is measured with a luminometer and the signal in each individual well is expressed as a percentage of the untreated cultures. […] Instead the density of the culture is measured by means of the MTS method (Promega).

Data set [2] in a line: Proliferation of exponentially growing Huh-5-2 cells (MTS method). The note with it: human, CC50, concentration required to inhibit the proliferation of exponentially growing Huh-5-2 cells by 50%; Table 2. As for the experimental part:
as §1
(Tetrazolium dyes change colour on reduction, which living cells bring about.)

As usually defined, the IC50 is the concentration at which inhibition is half-maximal. A lower IC50 goes with higher potency. What is called CC50 is the concentration giving 50% cytotoxicity. A lower CC50 goes with harm at low concentration. As to `CCN1C(=O)c2ccccc2C(C(=O)Nc2cccc(OC)c2)C1c1cccs1` (centres unmarked) [C5, 2-Ethyl-N-(3-methoxyphenyl)-1-oxo-3-(thiophen-2-yl)-1,2,3,4-tetrahydroisoquinoline-4-carboxamide], the half-maximal inhibitory concentration (IC50) in data set [1] worked out at 3.6 µg/mL (≈ 8.86 µM). Besides, the midpoint of cytotoxicity in data set [2], the CC50 at 72 h, lay at 33.4 µg/mL (≈ 82.2 µM). In the same order, the values of `COCCN1C(=O)c2ccccc2C(C(=O)Nc2cccc(OC)c2)C1c1ccco1` (centres unmarked) [C6, 3-(furan-2-yl)-2-(2-methoxyethyl)-N-(3-methoxyphenyl)-1-oxo-1,2,3,4-tetrahydroisoquinoline-4-carboxamide] are 6.3 µg/mL (≈ 15 µM) and 69.6 µg/mL (≈ 166 µM). In data set [1], `COCCN1C(=O)c2ccccc2C(C(=O)Nc2cccc(OC)c2)C1c1cccc(F)c1` (centres unmarked) [C8, 3-(3-Fluorophenyl)-2-(2-methoxyethyl)-N-(3-methoxyphenyl)-1-oxo-1,2,3,4-tetrahydroisoquinoline-4-carboxamide] gave an IC50 of 21.8 µg/mL (≈ 48.6 µM). The CC50 at 72 h in data set [2] was determined as 54.5 µg/mL (≈ 122 µM).

`COCCN1C(=O)c2ccccc2C(C(=O)Nc2cccc(OC)c2)C1c1ccc(F)cc1` (centres unmarked) [C9, 3-(4-Fluorophenyl)-2-(2-methoxyethyl)-N-(3-methoxyphenyl)-1-oxo-1,2,3,4-tetrahydroisoquinoline-4-carboxamide] returned an IC50 in data set [1] of 13.4 µg/mL (≈ 29.8 µM). For the same compound, the midpoint of cytotoxicity in data set [2], the CC50 at 72 h, lay at 50.7 µg/mL (≈ 113 µM). In turn, `COCCN1C(=O)c2ccccc2C(C(=O)Nc2cccc(OC)c2)C1c1ccsc1` (centres unmarked) [C11, 2-(2-Methoxyethyl)-N-(3-methoxyphenyl)-1-oxo-3-(thiophen-3-yl)-1,2,3,4-tetrahydroisoquinoline-4-carboxamide] had an IC50 in data set [1] of 1.2 µg/mL (≈ 2.75 µM). In data set [2], this compound yielded a CC50 at 72 h of 37.9 µg/mL (≈ 86.8 µM).

In data set [1], `COCCCN1C(=O)c2ccccc2C(C(=O)Nc2cccc(OC)c2)C1c1cccs1` (centres unmarked) [C13, N-(3-methoxyphenyl)-2-(3-methoxypropyl)-1-oxo-3-(thiophen-2-yl)-1,2,3,4-tetrahydroisoquinoline-4-carboxamide] displayed an IC50 of 2.11 µg/mL (≈ 4.68 µM). The compound also returned a CC50 at 72 h in data set [2] of 33.3 µg/mL (≈ 73.9 µM). In data set [1], `COCCN1C(=O)c2ccccc2C(C(=O)Nc2cccc(OC)c2)C1c1sccc1Cl` (centres unmarked) [C17, 3-(3-Chlorothiophen-2-yl)-2-(2-methoxyethyl)-N-(3-methoxyphenyl)-1-oxo-1,2,3,4-tetrahydroisoquinoline-4-carboxamide] gave an IC50 of 3.8 µg/mL (≈ 8.07 µM). Further, the CC50 at 72 h in data set [2] was found to be 50.4 µg/mL (≈ 107 µM).

On to `COCCN1C(=O)c2ccccc2C(C(=O)Nc2ccccc2)C1c1cccs1` (centres unmarked) [C18, 2-(2-Methoxyethyl)-1-oxo-N-phenyl-3-(thiophen-2-yl)-1,2,3,4-tetrahydroisoquinoline-4-carboxamide], for which half-maximal inhibition in data set [1] (IC50) required 2.65 µg/mL (≈ 6.52 µM). Besides, in data set [2], it took 78.2 µg/mL (≈ 192 µM) to reach half-maximal cytotoxicity (CC50 at 72 h). On the same counts, the results for `COCCN1C(=O)c2ccccc2C(C(=O)Nc2ccc(C(F)(F)F)cc2)C1c1cccs1` (centres unmarked) [C19, 2-(2-Methoxyethyl)-1-oxo-3-(thiophen-2-yl)-N-(4-(trifluoromethyl)phenyl)-1,2,3,4-tetrahydroisoquinoline-4-carboxamide] are 5.2 µg/mL (≈ 11 µM) and 12.1 µg/mL (≈ 25.5 µM).

Take `COCCN1C(=O)c2ccccc2C(C(=O)Nc2ccc(C#N)cc2)C1c1cccs1` (centres unmarked) [C20, N-(4-cyanophenyl)-2-(2-methoxyethyl)-1-oxo-3-(thiophen-2-yl)-1,2,3,4-tetrahydroisoquinoline-4-carboxamide]: in data set [1], 0.4 µg/mL (≈ 0.927 µM) corresponded to half-maximal inhibition (IC50). In addition, in data set [2], it took 42 µg/mL (≈ 97.3 µM) to reach half-maximal cytotoxicity (CC50 at 72 h).

In data set [1], `COc1cccc(NC(=O)C2c3ccccc3C(=O)N(CCO)C2c2cccs2)c1` (centres unmarked) [C23, 2-(2-Hydroxyethyl)-N-(3-methoxyphenyl)-1-oxo-3-(thiophen-2-yl)-1,2,3,4-tetrahydroisoquinoline-4-carboxamide] showed an IC50 of 43 µg/mL (≈ 102 µM). In data set [2], the midpoint of cytotoxicity, the CC50 at 72 h, lay at 118 µg/mL (≈ 280 µM). In the same order, the values of `COc1cccc(NC(=O)C2c3ccccc3C(=O)N(C3CCCCC3)C2c2cccs2)c1` (centres unmarked) [C25, 2-Cyclohexyl-N-(3-methoxyphenyl)-1-oxo-3-(thiophen-2-yl)-1,2,3,4-tetrahydroisoquinoline-4-carboxamide] are 0.98 µg/mL (≈ 2.13 µM) and 5.28 µg/mL (≈ 11.5 µM).

`COCCN1C(=O)c2ccccc2C(C(=O)Nc2cccc(OC)c2)C1c1ccc[nH]1` (centres unmarked) [C29, 2-(2-Methoxyethyl)-N-(3-methoxyphenyl)-1-oxo-3-(1H-pyrrol-2-yl)-1,2,3,4-tetrahydroisoquinoline-4-carboxamide] had a concentration for half-maximal inhibition (IC50) in data set [1] of 14.8 µg/mL (≈ 35.2 µM). This compound showed a CC50 at 72 h in data set [2] of 54.5 µg/mL (≈ 130 µM). In turn, `COCCN1C(=O)c2ccccc2C(C(=O)Nc2cccc(OC)c2)C1c1ccncc1` (centres unmarked) [C30, 2-(2-Methoxyethyl)-N-(3-methoxyphenyl)-1-oxo-3-(pyridin-4-yl)-1,2,3,4-tetrahydroisoquinoline-4-carboxamide] gave an IC50 in data set [1] of 36.7 µg/mL (≈ 85 µM). In data set [2], this compound gave a CC50 at 72 h of 70.3 µg/mL (≈ 163 µM).

In data set [1], `COCCn1c(-c2cccs2)c(C(=O)Nc2cccc(OC)c2)c2ccccc2c1=O` [C32, 2-(2-methoxyethyl)-N-(3-methoxyphenyl)-1-oxo-3-(thiophen-2-yl)-1,2-dihydroisoquinoline-4-carboxamide] had an IC50 of 37.3 µg/mL (≈ 85.8 µM). Besides, the CC50 at 72 h in data set [2] is 73.7 µg/mL (≈ 170 µM).

In data set [1], `COc1cccc(NC(=O)C2c3ccccc3C(=O)N(Cc3ccccc3)C2c2cccs2)c1` (centres unmarked) [C37, 2-Benzyl-N-(3-methoxyphenyl)-1-oxo-3-(thiophen-2-yl)-1,2,3,4-tetrahydroisoquinoline-4-carboxamide] came in with an IC50 of 1.5 µg/mL (≈ 3.2 µM). This compound also gave a CC50 at 72 h in data set [2] of 92.7 µg/mL (≈ 198 µM). In the same order, the values of `COCCN1C(=O)c2cccc(C)c2C(C(=O)Nc2cccc(OC)c2)C1c1cccs1` (centres unmarked) [C39, 2-(2-Methoxyethyl)-N-(3-methoxyphenyl)-5-methyl-1-oxo-3-(thiophen-2-yl)-1,2,3,4-tetrahydroisoquinoline-4-carboxamide] are 1.3 µg/mL (≈ 2.89 µM) and 80 µg/mL (≈ 178 µM). In the same order, the values of `COCCN1C(=O)c2ccccc2C(C(=O)NCCc2cn(C)c3ccccc23)C1c1cccs1` (centres unmarked) [C44, 2-(2-Methoxyethyl)-N-(2-(1-methyl-1H-indol-3-yl)ethyl)-1-oxo-3-(thiophen-2-yl)-1,2,3,4-tetrahydroisoquinoline-4-carboxamide] are 4.17 µg/mL (≈ 8.55 µM) and 28.4 µg/mL (≈ 58.2 µM). In data set [1], `COCCN1C(=O)c2ccccc2C(C(=O)Nc2cc[nH]n2)C1c1cccs1` (centres unmarked) [C184, 2-(2-methoxyethyl)-1-oxo-N-(1H-pyrazol-3-yl)-3-(thiophen-2-yl)-1,2,3,4-tetrahydroisoquinoline-4-carboxamide] showed an IC50 of 55 µg/mL (≈ 139 µM). Same read-out and setting: next, `COCCN1C(=O)c2ccccc2C(C(=O)Nc2ccc(CN3CCOCC3)cc2)C1c1cccs1` (centres unmarked) [C188, 2-(2-methoxyethyl)-N-(4-(morpholinomethyl)phenyl)-1-oxo-3-(thiophen-2-yl)-1,2,3,4-tetrahydroisoquinoline-4-carboxamide]: 0.1 µg/mL (≈ 0.198 µM); `COCCN1C(=O)c2ccccc2C(C(=O)Nc2nc(-c3ccccc3)ns2)C1c1cccs1` (centres unmarked) [C194, 2-(2-methoxyethyl)-1-oxo-N-(3-phenyl-1,2,4-thiadiazol-5-yl)-3-(thiophen-2-yl)-1,2,3,4-tetrahydroisoquinoline-4-carboxamide]: 0.019 µg/mL (≈ 0.0387 µM); `COCCN1C(=O)c2ccccc2C(C(=O)Nc2ccc3occc3c2)C1c1cccs1` (centres unmarked) [C195, N-(benzofuran-5-yl)-2-(2-methoxyethyl)-1-oxo-3-(thiophen-2-yl)-1,2,3,4-tetrahydroisoquinoline-4-carboxamide]: 0.13 µg/mL (≈ 0.291 µM). Same read-out and setting: next, `COCCN1C(=O)c2ccccc2C(C(=O)Nc2cc(C3CC3)nn2C)C1c1cccs1` (centres unmarked) [C197, N-(3-cyclopropyl-1-methyl-1H-pyrazol-5-yl)-2-(2-methoxyethyl)-1-oxo-3-(thiophen-2-yl)-1,2,3,4-tetrahydroisoquinoline-4-carboxamide]: 4 µg/mL (≈ 8.88 µM). As to `COCCN1C(=O)c2ccccc2C(C(=O)Nc2ccc3c(c2)S(=O)(=O)C=C3)C1c1cccs1` (centres unmarked) [C198, N-(1,1-dioxobenzo[b]thiophen-6-yl)-2-(2-methoxyethyl)-1-oxo-3-(thiophen-2-yl)-1,2,3,4-tetrahydroisoquinoline-4-carboxamide], the IC50 in data set [1] worked out at 4 µg/mL (≈ 8.09 µM). Regarding `COCCN1C(=O)c2ccccc2C(C(=O)Nc2ccc(-n3nc(C)cc3C)cc2)C1c1cccs1` (centres unmarked) [C201, N-(4-(3,5-dimethyl-1H-pyrazol-1-yl)phenyl)-2-(2-methoxyethyl)-1-oxo-3-(thiophen-2-yl)-1,2,3,4-tetrahydroisoquinoline-4-carboxamide], the IC50 in data set [1] turned out to be 0.078 µg/mL (≈ 0.156 µM). This IC50 lies about 51-fold lower than the previous one.

In data set [1], `COCCN1C(=O)c2ccccc2C(C(=O)Nc2cccc(-c3cnco3)c2)C1c1cccs1` (centres unmarked) [C210, 2-(2-methoxyethyl)-N-(3-(oxazol-5-yl)phenyl)-1-oxo-3-(thiophen-2-yl)-1,2,3,4-tetrahydroisoquinoline-4-carboxamide] returned an IC50 of 0.072 µg/mL (≈ 0.152 µM). Consider `COCCN1C(=O)c2ccccc2C(C(=O)Nc2onc(C)c2C)C1c1cccs1` (centres unmarked) [C220, N-(3,4-dimethylisoxazol-5-yl)-2-(2-methoxyethyl)-1-oxo-3-(thiophen-2-yl)-1,2,3,4-tetrahydroisoquinoline-4-carboxamide], for which, in data set [1], the IC50 was 2.67 µg/mL (≈ 6.27 µM). This IC50 lies about 37-fold higher than the previous one. Still for that read-out and setting: next, `COCCN1C(=O)c2ccccc2C(C(=O)Nc2ccc(-n3cccc3)c(C#N)c2)C1c1cccs1` (centres unmarked) [C222, N-(3-cyano-4-(1H-pyrrol-1-yl)phenyl)-2-(2-methoxyethyl)-1-oxo-3-(thiophen-2-yl)-1,2,3,4-tetrahydroisoquinoline-4-carboxamide]: 0.21 µg/mL (≈ 0.423 µM). Compound `COCCN1C(=O)c2ccccc2C(C(=O)Nc2ccc(Cl)cn2)C1c1cccs1` (centres unmarked) [C223, N-(5-chloropyridin-2-yl)-2-(2-methoxyethyl)-1-oxo-3-(thiophen-2-yl)-1,2,3,4-tetrahydroisoquinoline-4-carboxamide] registered an IC50 in data set [1] of 1 µg/mL (≈ 2.26 µM).
